Several values for one entry are separate records, joined by “and”; a condition that tells them apart may be missing. Equal entries are not always repeated. Where two headings read alike, the source gives them in different places.
Experiment: Pharmacokinetics after repeated oral administration of 250 μg/kg and 35 μg/kg of fluralaner in dogs after feeding
Type: in vivo, beagle dogs
Settings: for concentration at 24 h / concentration at 48 h / concentration at 72 h / concentration at 96 h / concentration at 120 h / concentration at 144 h: beagle, dog, plasma, po
Method: The first objective is to obtain the pharmacokinetic parameters after repeated oral administration of […] and 35 μg/kg of fluralaner in dogs after feeding.
The second objective is to investigate the pharmacodynamics between the fluralaner plasmatic dose and the effectiveness against ticks. • IVP: Investigational Veterinary Product, is pure Fluralaner+DMSO (250 μg/kg on Days 0 to 3 (0.25 mL/kg), then 35 μg/kg on Days 4 to 9 (0.35 mL/kg), then 600 μg/kg on Day 11) • Control product is DMSO (0.25 mL/kg on Days 0 to 3, then 0.35 mL/kg on Days 4 to 9)
On Days 0, 1, 2 and 3, all dogs assigned to group 2 received the Investigational Veterinary Product. On Days 0 to 3 all dogs in group 1 received the control product at a volume equal to the dogs in group 2. Dogs assigned to group 1 received the control product and served as Placebo controls. The quantity of Investigational Veterinary Product and control product administered was calculated according to the dog's individual body weight measured on Day −1. […]
On days of administration of pre-Investigational Veterinary Product or Control Product, dogs were fed (the same dog food) approximately half of their normal daily ration 30 minutes to 35 minutes prior to administration. Food consumed by the time of administration was calculated and recorded. The remainder of their normal daily ration was fed immediately after administration.
The PK parameters of fluralaner were calculated using a non-compartmental approach.
The following rules were applied for the calculation of the PK parameters: • All the plasma concentrations, validated by the bioanalytical laboratory, were used for the PK analysis. • The actual blood sampling times were used throughout. • Concentrations below the Limit of Quantification (LOQ) value were considered as zero from time zero (pre-dose) up to the time at which the first quantifiable concentration above the LOQ value was observed. Concentrations below the LOQ value between two quantifiable concentrations were considered as missing. Trailing concentrations below the LOQ value were not used in calculations.
Cmax the observed maximum concentration in plasma measured after dosing.
λz the terminal rate constant (λz) was estimated by log-linear regression analysis on data points visually assessed, to be on the terminal log-linear phase. For the slope of the terminal elimination phase to be accepted as reliable, the following criteria were used: • the terminal data points were apparently randomly distributed about a single straight line (on visual inspection), • a minimum of three data points, including the last measured data point and excluding Cmax, were available for the regression.
t1/2 the terminal plasma half-life (t1/2) was calculated according to the following equation: […]

With `Cc1cc(C2=NOC(c3cc(Cl)cc(Cl)c3)(C(F)(F)F)C2)ccc1C(=O)NCC(=O)NCC(F)(F)F` (stereo not drawn) [fluralaner, Fluralaner] the “fluralaner concentration levels, individual animal” value (shortened to “fluralaner concentration levels”) (24 h, oral 250 μg/kg Days 0-3, 35 μg/kg Days 4-9, 600 μg/kg Day 11, dogs) was 142 ng/mL and 158 ng/mL and 129 ng/mL, the “fluralaner concentration levels” value (48 h, oral 250 μg/kg Days 0-3, 35 μg/kg Days 4-9, 600 μg/kg Day 11, dogs) was 269 ng/mL and 283 ng/mL and 253 ng/mL and the “fluralaner concentration levels” value (72 h, oral 250 μg/kg Days 0-3, 35 μg/kg Days 4-9, 600 μg/kg Day 11, dogs) was 381 ng/mL and 378 ng/mL and 373 ng/mL. For the same compound, the “fluralaner concentration levels” value (96 h, oral 250 μg/kg Days 0-3, 35 μg/kg Days 4-9, 600 μg/kg Day 11, dogs) was 496 ng/mL and 572 ng/mL and 515 ng/mL, the “fluralaner concentration levels” value (120 h, oral 250 μg/kg Days 0-3, 35 μg/kg Days 4-9, 600 μg/kg Day 11, dogs) was 465 ng/mL and 535 ng/mL and 554 ng/mL and the “fluralaner concentration levels” value (144 h, oral 250 μg/kg Days 0-3, 35 μg/kg Days 4-9, 600 μg/kg Day 11, dogs) was 510 ng/mL and 447 ng/mL and 454 ng/mL. For the same compound, the “fluralaner concentration levels” value (168 h, oral 250 μg/kg Days 0-3, 35 μg/kg Days 4-9, 600 μg/kg Day 11, dogs) was 521 ng/mL and 536 ng/mL and 520 ng/mL, the “fluralaner concentration levels” value (192 h, oral 250 μg/kg Days 0-3, 35 μg/kg Days 4-9, 600 μg/kg Day 11, dogs) was 456 ng/mL and 558 ng/mL and 455 ng/mL and the “fluralaner concentration levels” value (216 h, oral 250 μg/kg Days 0-3, 35 μg/kg Days 4-9, 600 μg/kg Day 11, dogs) was 468 ng/mL and 551 ng/mL and 472 ng/mL and 493 ng/mL. The “fluralaner concentration levels” value (240 h, oral 250 μg/kg Days 0-3, 35 μg/kg Days 4-9, 600 μg/kg Day 11, dogs) was 423 ng/mL and 368 ng/mL and 724 ng/mL and 422 ng/mL, the “fluralaner concentration levels” value (384 h, oral 250 μg/kg Days 0-3, 35 μg/kg Days 4-9, 600 μg/kg Day 11, dogs) was 893 ng/mL and 523 ng/mL and 715 ng/mL and 1000 ng/mL and the “fluralaner concentration levels” value (528 h, oral 250 μg/kg Days 0-3, 35 μg/kg Days 4-9, 600 μg/kg Day 11, dogs) was 267 ng/mL and 373 ng/mL and 235 ng/mL and 517 ng/mL and 283 ng/mL. The “fluralaner concentration levels” value (624 h, oral 250 μg/kg Days 0-3, 35 μg/kg Days 4-9, 600 μg/kg Day 11, dogs) was 223 ng/mL and 280 ng/mL and 182 ng/mL and 403 ng/mL and 227 ng/mL, the “fluralaner concentration levels” value (720 h, oral 250 μg/kg Days 0-3, 35 μg/kg Days 4-9, 600 μg/kg Day 11, dogs) was 285 ng/mL and 275 ng/mL and 248 ng/mL and 187 ng/mL and the steady state concentrations (after the fourth dose application 250 μg/kg per day (on Day 3)) was “not been reached”. For the same compound, the concentration at 24 h (24 h, oral 250 μg/kg Days 0-3, 35 μg/kg Days 4-9, 600 μg/kg Day 11, dogs, read-out: fluralaner concentration levels, individual animal) was 160 ng/mL, the concentration at 24 h (24 h, oral 250/35/600 μg/kg regimen, dogs, n=6, read-out: fluralaner concentration levels, GeoMean) was 145 ng/mL and the concentration at 24 h (24 h, oral 250/35/600 μg/kg regimen, dogs, n=6, read-out: fluralaner concentration levels, Maximum) was 160 ng/mL. The concentration at 24 h (24 h, oral 250/35/600 μg/kg regimen, dogs, n=6, read-out: fluralaner concentration levels, Mean) was 146 ng/mL, the concentration at 24 h (24 h, oral 250/35/600 μg/kg regimen, dogs, n=6, read-out: fluralaner concentration levels, Median) was 146 ng/mL and the concentration at 24 h (24 h, oral 250/35/600 μg/kg regimen, dogs, n=6, read-out: fluralaner concentration levels, Minimum) was 129 ng/mL. It also gave a concentration at 48 h (48 h, oral 250 μg/kg Days 0-3, 35 μg/kg Days 4-9, 600 μg/kg Day 11, dogs, read-out: fluralaner concentration levels, individual animal) of 257 ng/mL, a concentration at 48 h (48 h, oral 250/35/600 μg/kg regimen, dogs, n=6, read-out: fluralaner concentration levels, GeoMean) of 269 ng/mL and a concentration at 48 h (48 h, oral 250/35/600 μg/kg regimen, dogs, n=6, read-out: fluralaner concentration levels, Maximum) of 312 ng/mL. The concentration at 48 h (48 h, oral 250/35/600 μg/kg regimen, dogs, n=6, read-out: fluralaner concentration levels, Mean) was 270 ng/mL, the concentration at 48 h (48 h, oral 250/35/600 μg/kg regimen, dogs, n=6, read-out: fluralaner concentration levels, Median) was 263 ng/mL and the concentration at 48 h (48 h, oral 250/35/600 μg/kg regimen, dogs, n=6, read-out: fluralaner concentration levels, Minimum) was 245 ng/mL. It also gave a concentration at 72 h (72 h, oral 250 μg/kg Days 0-3, 35 μg/kg Days 4-9, 600 μg/kg Day 11, dogs, read-out: fluralaner concentration levels, individual animal) of 366 ng/mL, a concentration at 72 h (72 h, oral 250/35/600 μg/kg regimen, dogs, n=6, read-out: fluralaner concentration levels, GeoMean) of 386 ng/mL and a concentration at 72 h (72 h, oral 250/35/600 μg/kg regimen, dogs, n=6, read-out: fluralaner concentration levels, Maximum) of 469 ng/mL. For the same compound, the concentration at 72 h (72 h, oral 250/35/600 μg/kg regimen, dogs, n=6, read-out: fluralaner concentration levels, Mean) was 388 ng/mL, the concentration at 72 h (72 h, oral 250/35/600 μg/kg regimen, dogs, n=6, read-out: fluralaner concentration levels, Median) was 376 ng/mL and the concentration at 72 h (72 h, oral 250/35/600 μg/kg regimen, dogs, n=6, read-out: fluralaner concentration levels, Minimum) was 361 ng/mL. For the same compound, the concentration at 96 h (96 h, oral 250 μg/kg Days 0-3, 35 μg/kg Days 4-9, 600 μg/kg Day 11, dogs, read-out: fluralaner concentration levels, individual animal) was 497 ng/mL, the concentration at 96 h (96 h, oral 250/35/600 μg/kg regimen, dogs, n=6, read-out: fluralaner concentration levels, GeoMean) was 524 ng/mL and the concentration at 96 h (96 h, oral 250/35/600 μg/kg regimen, dogs, n=6, read-out: fluralaner concentration levels, Maximum) was 602 ng/mL. The concentration at 96 h (96 h, oral 250/35/600 μg/kg regimen, dogs, n=6, read-out: fluralaner concentration levels, Mean) was 526 ng/mL, the concentration at 96 h (96 h, oral 250/35/600 μg/kg regimen, dogs, n=6, read-out: fluralaner concentration levels, Median) was 506 ng/mL and the concentration at 96 h (96 h, oral 250/35/600 μg/kg regimen, dogs, n=6, read-out: fluralaner concentration levels, Minimum) was 471 ng/mL. The concentration at 120 h (120 h, oral 250 μg/kg Days 0-3, 35 μg/kg Days 4-9, 600 μg/kg Day 11, dogs, read-out: fluralaner concentration levels, individual animal) was 495 ng/mL, the concentration at 120 h (120 h, oral 250/35/600 μg/kg regimen, dogs, n=6, read-out: fluralaner concentration levels, GeoMean) was 508 ng/mL and the concentration at 120 h (120 h, oral 250/35/600 μg/kg regimen, dogs, n=6, read-out: fluralaner concentration levels, Maximum) was 554 ng/mL. The concentration at 120 h (120 h, oral 250/35/600 μg/kg regimen, dogs, n=6, read-out: fluralaner concentration levels, Mean) was 509 ng/mL, the concentration at 120 h (120 h, oral 250/35/600 μg/kg regimen, dogs, n=6, read-out: fluralaner concentration levels, Median) was 515 ng/mL and the concentration at 120 h (120 h, oral 250/35/600 μg/kg regimen, dogs, n=6, read-out: fluralaner concentration levels, Minimum) was 465 ng/mL. For the same compound, the concentration at 144 h (144 h, oral 250 μg/kg Days 0-3, 35 μg/kg Days 4-9, 600 μg/kg Day 11, dogs, read-out: fluralaner concentration levels, individual animal) was 497 ng/mL, the concentration at 144 h (144 h, oral 250/35/600 μg/kg regimen, dogs, n=6, read-out: fluralaner concentration levels, GeoMean) was 491 ng/mL and the concentration at 144 h (144 h, oral 250/35/600 μg/kg regimen, dogs, n=6, read-out: fluralaner concentration levels, Maximum) was 550 ng/mL. For the same compound, the concentration at 144 h (144 h, oral 250/35/600 μg/kg regimen, dogs, n=6, read-out: fluralaner concentration levels, Mean) was 492 ng/mL, the concentration at 144 h (144 h, oral 250/35/600 μg/kg regimen, dogs, n=6, read-out: fluralaner concentration levels, Median) was 496 ng/mL and the concentration at 144 h (144 h, oral 250/35/600 μg/kg regimen, dogs, n=6, read-out: fluralaner concentration levels, Minimum) was 447 ng/mL.

From patent publication US12714696B2, “Low dose fluralaner compositions for protection against parasitic invertebrate pest” (VIRBAC, priority 2019, dated 2026)
